Laboratory results taken from ChEMBL document CHEMBL1151868, “Identification of pyrazolo[1,5-a]pyrimidine-3-carboxylates as B-Raf kinase inhibitors” (Bioorg Med Chem Lett, 2009).

Tests used:
[1] = molecular target: Serine/threonine-protein kinase B-raf (Homo sapiens, UniProt P15056); test: Inhibition of human recombinant B-Raf expressed in Sf9 cells assessed as inhibition of Mek1 phosphorylation
BXPC-3 = test: Growth inhibition of human BxPC3 cells; assay type: functional, cell-based
HT-29 = test: Growth inhibition of human HT-29 cells; assay type: functional, cell-based
A-375 = test: Growth inhibition of human A375 cells; assay type: functional, cell-based
SW-620 = test: Growth inhibition of human SW620 cells; assay type: functional, cell-based
LoVo = test: Growth inhibition of human LoVo cells; assay type: functional, cell-based
[2] = Growth inhibition of human WM266.4 cells; assay type: functional, cell-based; details: WM 266-4
Caco-2 = test: Growth inhibition of human Caco-2 cells; assay type: functional, cell-based
[3] = molecular target: Serine/threonine-protein kinase mTOR (Homo sapiens, UniProt P42345); test: Inhibition of mTOR
[4] = molecular target: RAC-alpha serine/threonine-protein kinase (Homo sapiens, UniProt P31749); test: Inhibition of AKT
RAC-alpha serine/threonine-protein kinase, sequence (P31749 whole entry): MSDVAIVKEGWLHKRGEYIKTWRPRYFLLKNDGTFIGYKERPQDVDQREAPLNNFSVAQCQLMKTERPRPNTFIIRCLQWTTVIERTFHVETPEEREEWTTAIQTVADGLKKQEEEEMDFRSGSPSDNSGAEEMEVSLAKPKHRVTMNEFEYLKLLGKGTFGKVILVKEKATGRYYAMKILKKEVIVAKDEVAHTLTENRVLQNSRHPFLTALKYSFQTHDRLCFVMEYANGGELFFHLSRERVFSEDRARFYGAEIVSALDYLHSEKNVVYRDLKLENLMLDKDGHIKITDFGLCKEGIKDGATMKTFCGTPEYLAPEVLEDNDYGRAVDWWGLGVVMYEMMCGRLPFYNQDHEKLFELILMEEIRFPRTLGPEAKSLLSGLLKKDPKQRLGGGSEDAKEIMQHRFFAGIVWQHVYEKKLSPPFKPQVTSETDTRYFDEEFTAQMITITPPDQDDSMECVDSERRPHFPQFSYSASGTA

[5] = molecular target: Cyclin-dependent kinase 4 (Homo sapiens, UniProt P11802); test: Inhibition of CDK4
Cyclin-dependent kinase 4, sequence (P11802 whole entry): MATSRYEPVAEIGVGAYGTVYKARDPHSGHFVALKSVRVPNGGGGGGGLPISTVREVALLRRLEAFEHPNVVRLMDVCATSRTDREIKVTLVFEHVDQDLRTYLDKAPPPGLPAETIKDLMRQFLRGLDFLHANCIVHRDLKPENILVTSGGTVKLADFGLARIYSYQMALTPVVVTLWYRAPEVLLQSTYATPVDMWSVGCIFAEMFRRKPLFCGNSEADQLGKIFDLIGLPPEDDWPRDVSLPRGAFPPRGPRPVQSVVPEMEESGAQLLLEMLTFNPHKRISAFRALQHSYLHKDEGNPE

[6] = molecular target: Tyrosine-protein kinase Lck (Homo sapiens, UniProt P06239); test: Inhibition of LCK
Tyrosine-protein kinase Lck, sequence (P06239 whole entry): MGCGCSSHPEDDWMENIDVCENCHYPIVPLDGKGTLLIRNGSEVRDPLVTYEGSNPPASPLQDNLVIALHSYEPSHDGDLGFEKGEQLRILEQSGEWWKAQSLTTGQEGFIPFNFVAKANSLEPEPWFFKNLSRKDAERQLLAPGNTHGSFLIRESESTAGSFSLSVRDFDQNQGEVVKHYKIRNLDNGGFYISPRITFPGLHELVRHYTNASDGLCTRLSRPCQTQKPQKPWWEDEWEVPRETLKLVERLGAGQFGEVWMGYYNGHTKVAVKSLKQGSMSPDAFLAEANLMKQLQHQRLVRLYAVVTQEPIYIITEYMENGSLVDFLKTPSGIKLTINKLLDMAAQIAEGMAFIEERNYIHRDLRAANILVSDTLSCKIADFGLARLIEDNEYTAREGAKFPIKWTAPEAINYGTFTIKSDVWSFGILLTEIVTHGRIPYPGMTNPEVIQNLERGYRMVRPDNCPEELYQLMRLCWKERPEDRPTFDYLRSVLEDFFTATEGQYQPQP

[7] = molecular target: Tyrosine-protein kinase Lyn (Homo sapiens, UniProt P07948); test: Inhibition of LYN
Tyrosine-protein kinase Lyn, sequence (P07948 whole entry): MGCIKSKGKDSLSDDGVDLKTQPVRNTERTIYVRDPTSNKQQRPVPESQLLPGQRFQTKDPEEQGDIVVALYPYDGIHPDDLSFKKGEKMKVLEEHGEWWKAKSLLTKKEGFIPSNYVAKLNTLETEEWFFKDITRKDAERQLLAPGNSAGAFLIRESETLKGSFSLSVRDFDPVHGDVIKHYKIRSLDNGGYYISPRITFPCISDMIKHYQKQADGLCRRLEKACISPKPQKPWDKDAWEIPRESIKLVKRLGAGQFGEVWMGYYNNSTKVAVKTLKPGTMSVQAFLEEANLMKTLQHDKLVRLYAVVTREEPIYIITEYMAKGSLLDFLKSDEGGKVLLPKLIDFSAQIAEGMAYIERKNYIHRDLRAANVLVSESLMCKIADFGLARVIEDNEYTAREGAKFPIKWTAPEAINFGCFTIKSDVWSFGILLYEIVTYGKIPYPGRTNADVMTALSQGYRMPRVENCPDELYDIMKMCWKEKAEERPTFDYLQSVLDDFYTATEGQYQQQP

[8] = molecular target: Vascular endothelial growth factor receptor 2 (Homo sapiens, UniProt P35968); test: Inhibition of KDR
Vascular endothelial growth factor receptor 2, sequence (P35968 whole entry): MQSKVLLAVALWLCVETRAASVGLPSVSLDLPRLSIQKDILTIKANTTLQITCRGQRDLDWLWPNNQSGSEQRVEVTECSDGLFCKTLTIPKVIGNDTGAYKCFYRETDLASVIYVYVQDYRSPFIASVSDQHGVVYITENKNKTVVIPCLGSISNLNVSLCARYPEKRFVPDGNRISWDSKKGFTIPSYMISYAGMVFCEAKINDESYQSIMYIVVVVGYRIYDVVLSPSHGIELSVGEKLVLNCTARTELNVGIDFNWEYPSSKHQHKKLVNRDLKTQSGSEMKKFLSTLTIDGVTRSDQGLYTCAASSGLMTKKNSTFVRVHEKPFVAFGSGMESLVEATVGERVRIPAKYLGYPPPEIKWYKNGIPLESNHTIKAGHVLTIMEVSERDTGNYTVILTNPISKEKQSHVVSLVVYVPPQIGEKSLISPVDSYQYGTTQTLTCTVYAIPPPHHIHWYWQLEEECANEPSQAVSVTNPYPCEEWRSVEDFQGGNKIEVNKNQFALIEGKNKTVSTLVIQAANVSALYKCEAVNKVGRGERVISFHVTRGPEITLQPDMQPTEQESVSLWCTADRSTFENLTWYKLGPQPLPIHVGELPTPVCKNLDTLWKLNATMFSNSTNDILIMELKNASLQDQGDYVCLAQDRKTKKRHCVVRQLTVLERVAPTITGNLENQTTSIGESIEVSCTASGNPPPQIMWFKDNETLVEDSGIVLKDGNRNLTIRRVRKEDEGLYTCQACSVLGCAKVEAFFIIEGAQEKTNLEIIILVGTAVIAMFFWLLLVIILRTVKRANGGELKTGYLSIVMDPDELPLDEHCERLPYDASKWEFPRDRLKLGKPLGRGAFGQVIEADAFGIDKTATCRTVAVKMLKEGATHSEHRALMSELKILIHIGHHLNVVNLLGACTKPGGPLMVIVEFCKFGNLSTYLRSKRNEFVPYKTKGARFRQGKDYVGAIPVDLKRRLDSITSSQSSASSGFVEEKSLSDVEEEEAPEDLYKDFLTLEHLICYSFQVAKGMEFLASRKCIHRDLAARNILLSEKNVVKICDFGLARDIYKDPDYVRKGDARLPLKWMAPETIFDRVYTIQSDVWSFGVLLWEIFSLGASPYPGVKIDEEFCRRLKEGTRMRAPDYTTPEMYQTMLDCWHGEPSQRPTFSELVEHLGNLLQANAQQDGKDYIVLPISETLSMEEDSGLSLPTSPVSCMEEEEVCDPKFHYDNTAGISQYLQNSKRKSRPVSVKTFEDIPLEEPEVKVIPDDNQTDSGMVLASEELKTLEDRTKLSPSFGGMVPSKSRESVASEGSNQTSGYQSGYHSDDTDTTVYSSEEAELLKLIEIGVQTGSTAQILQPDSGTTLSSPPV

[9] = molecular target: Insulin-like growth factor 1 receptor (Homo sapiens, UniProt P08069); test: Inhibition of IGFR1
[10] = molecular target: Phosphatidylinositol 4,5-bisphosphate 3-kinase catalytic subunit alpha isoform (Homo sapiens, UniProt P42336); test: Inhibition of PI3Kalpha
[11] = molecular target: Proto-oncogene tyrosine-protein kinase Src (Homo sapiens, UniProt P12931); test: Inhibition of SRC
[12] = molecular target: Mitogen-activated protein kinase kinase kinase 8 (Homo sapiens, UniProt P41279); test: Inhibition of Tpl2
Mitogen-activated protein kinase kinase kinase 8, sequence (P41279 whole entry): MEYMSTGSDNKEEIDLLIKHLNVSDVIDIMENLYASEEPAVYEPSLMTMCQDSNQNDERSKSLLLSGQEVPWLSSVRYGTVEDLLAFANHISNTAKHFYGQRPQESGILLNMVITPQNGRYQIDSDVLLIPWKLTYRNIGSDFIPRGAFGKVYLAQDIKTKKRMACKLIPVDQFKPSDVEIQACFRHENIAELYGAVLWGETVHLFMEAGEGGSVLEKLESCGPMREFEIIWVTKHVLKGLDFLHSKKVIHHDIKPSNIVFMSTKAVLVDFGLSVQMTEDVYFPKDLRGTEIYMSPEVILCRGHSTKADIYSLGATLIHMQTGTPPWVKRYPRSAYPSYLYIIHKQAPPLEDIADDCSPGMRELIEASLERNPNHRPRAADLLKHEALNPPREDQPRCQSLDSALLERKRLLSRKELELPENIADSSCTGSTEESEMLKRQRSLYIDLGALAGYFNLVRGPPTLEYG

[13] = molecular target: Tyrosine-protein kinase BTK (Homo sapiens, UniProt Q06187); test: Inhibition of BTK
Tyrosine-protein kinase BTK, sequence (Q06187 whole entry): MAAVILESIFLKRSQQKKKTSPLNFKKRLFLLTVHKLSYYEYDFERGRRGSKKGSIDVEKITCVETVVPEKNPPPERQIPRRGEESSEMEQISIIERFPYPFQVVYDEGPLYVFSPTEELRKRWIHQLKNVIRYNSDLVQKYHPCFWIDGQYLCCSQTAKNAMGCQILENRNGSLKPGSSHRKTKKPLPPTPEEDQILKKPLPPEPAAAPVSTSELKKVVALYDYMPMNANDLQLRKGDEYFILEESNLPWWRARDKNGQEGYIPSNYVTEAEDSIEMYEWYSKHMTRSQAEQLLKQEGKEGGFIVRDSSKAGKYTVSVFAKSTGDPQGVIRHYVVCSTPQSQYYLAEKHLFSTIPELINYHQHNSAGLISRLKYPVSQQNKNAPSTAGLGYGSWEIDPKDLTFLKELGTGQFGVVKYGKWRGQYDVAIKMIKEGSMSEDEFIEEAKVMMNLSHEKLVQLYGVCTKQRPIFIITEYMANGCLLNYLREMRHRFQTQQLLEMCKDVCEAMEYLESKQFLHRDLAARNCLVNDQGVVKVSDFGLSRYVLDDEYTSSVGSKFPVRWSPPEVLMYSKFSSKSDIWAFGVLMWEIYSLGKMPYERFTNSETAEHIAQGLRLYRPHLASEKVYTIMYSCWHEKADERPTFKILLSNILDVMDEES

Serine/threonine-protein kinase B-raf, sequence (P15056 whole entry): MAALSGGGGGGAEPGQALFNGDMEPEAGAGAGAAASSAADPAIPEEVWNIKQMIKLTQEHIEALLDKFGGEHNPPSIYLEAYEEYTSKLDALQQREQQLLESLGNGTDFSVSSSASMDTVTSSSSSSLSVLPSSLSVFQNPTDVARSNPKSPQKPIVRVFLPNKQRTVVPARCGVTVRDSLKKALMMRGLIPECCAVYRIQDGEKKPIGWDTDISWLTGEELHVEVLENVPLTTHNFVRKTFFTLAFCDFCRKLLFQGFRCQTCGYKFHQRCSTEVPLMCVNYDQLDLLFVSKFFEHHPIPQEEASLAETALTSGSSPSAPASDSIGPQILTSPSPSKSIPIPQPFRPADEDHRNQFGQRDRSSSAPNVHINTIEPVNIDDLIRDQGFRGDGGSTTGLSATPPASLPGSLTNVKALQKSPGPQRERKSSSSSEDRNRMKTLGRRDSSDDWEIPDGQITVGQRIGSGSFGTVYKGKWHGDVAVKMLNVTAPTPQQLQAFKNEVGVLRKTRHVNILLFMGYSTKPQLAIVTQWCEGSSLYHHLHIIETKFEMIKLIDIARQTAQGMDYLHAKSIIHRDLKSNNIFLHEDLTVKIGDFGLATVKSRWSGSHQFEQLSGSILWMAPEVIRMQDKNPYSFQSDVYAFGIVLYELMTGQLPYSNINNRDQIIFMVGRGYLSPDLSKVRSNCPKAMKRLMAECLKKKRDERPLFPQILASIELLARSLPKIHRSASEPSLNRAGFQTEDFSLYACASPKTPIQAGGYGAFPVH

Compound | IC50 [1] | further results
O=C(Nc1cccc(-c2ccnc3c(C(=O)NCCN4CCOCC4)cnn23)c1)Nc1ccc(Cl)c(C(F)(F)F)c1 | 0.16 µM | 
CCOC(=O)c1cnn2c(-c3cccc(NC(=O)c4cccc(OC(F)(F)F)c4)c3)ccnc12 | 1.57 µM | 
O=C(Nc1cccc(-c2ccnc3c(C(=O)NCCN4CCOCC4)cnn23)c1)c1cccc(C(F)(F)F)c1 | 6.34 µM | 
CCOC(=O)c1cnn2c(-c3cccc(NC(=O)c4ccccc4)c3)ccnc12 | > 10 µM | 
CCOC(=O)c1cnn2c(-c3cccc(NC(=O)Nc4cccc(C(F)(F)F)c4)c3)ccnc12 | 0.54 µM | 
CCOC(=O)c1cnn2c(-c3cccc(NC(=O)Nc4cccc(Cl)c4)c3)ccnc12 | > 10 µM | 
CCOC(=O)c1cnn2c(-c3cccc(NC(=O)Nc4ccc(F)c(C(F)(F)F)c4)c3)ccnc12 | 0.24 µM | 
CCOC(=O)c1cnn2c(-c3cccc(NC(=O)c4cc(C(F)(F)F)ccc4C)c3)ccnc12 | > 10 µM | 
CCOC(=O)c1cnn2c(-c3cccc(NC(=O)Nc4ccc(Cl)c(C(F)(F)F)c4)c3)ccnc12 | 0.36 µM | 
O=C(Nc1cccc(-c2ccnc3c(C(=O)OCC(F)(F)F)cnn23)c1)c1cccc(C(F)(F)F)c1 | 1.45 µM | 
CCOC(=O)c1cnn2c(-c3cccc(NC(=O)c4cccc(C(F)(F)F)c4)c3)ccnc12 | 1.54 µM | IC50 (BXPC-3): 3.25 µM; IC50 (HT-29): 7 µM; IC50 (A-375): 3.8 µM; IC50 (SW-620): 8.3 µM; IC50 (LoVo): 3.87 µM; IC50 [2]: 6.2 µM; IC50 (Caco-2): 6.6 µM; IC50 [3]: > 10 µM; IC50 [4]: > 10 µM; IC50 [5]: > 10 µM; IC50 [6]: > 10 µM; IC50 [7]: > 10 µM; IC50 [8]: > 10 µM; IC50 [9]: > 10 µM; IC50 [10]: > 10 µM; IC50 [11]: > 10 µM; IC50 [12]: > 10 µM; IC50 [13]: > 10 µM

Continued, in another order:

IC50 [1] | Compound | further results
1.03 µM | CCOC(=O)c1cnn2c(-c3cccc(NC(=O)c4ccc(OC)c(C(F)(F)F)c4)c3)ccnc12 | 
> 10 µM | CCOC(=O)c1cnn2c(-c3cccc(NC(=O)c4cccc(C#N)c4)c3)ccnc12 | 
0.36 µM | CCOC(=O)c1cnn2c(-c3cccc(NC(=O)Nc4ccc(C)c(C(F)(F)F)c4)c3)ccnc12 | 
0.27 µM | COCCCNC(=O)c1cnn2c(-c3cccc(NC(=O)Nc4ccc(Cl)c(C(F)(F)F)c4)c3)ccnc12 | 
> 10 µM | CCOC(=O)c1cnn2c(-c3cccc(NC(=O)Nc4cc(C(F)(F)F)ccc4Cl)c3)ccnc12 | 
0.17 µM | CCN(CC)CCNC(=O)c1cnn2c(-c3cccc(NC(=O)Nc4ccc(Cl)c(C(F)(F)F)c4)c3)ccnc12 | 
3.6 µM | CCOC(=O)c1cnn2c(-c3cccc(NC(=O)Nc4ccc(C(F)(F)F)cc4)c3)ccnc12 | 
4.27 µM | CCOC(=O)c1cnn2c(-c3cccc(NC(=O)c4ccc(Cl)c(C(F)(F)F)c4)c3)ccnc12 | 
